Data on twelve molecules can be found in US20220324835A1 (Nurix Therapeutics, Inc., priority 2018, published 2022).

Assay [1] concerns T-cell. As to the kind of experiment: CD25 cell surface staining on T-cells co-stimulated with anti-CD3 and anti-CD28 antibody (Biological Example 2). It counts as cell-based, human. The conditions noted are these: Homo sapiens, T-cell, fold change over baseline, primary human total T-cells, read-out: CD25 staining Anti-CD3/Anti-CD28 stimulation; for fold induction at 0.3 µM: 0.3 μM Cbl-b inhibitor; for fold induction at 1 µM: 1 μM Cbl-b inhibitor; for fold induction at 4 µM: 4 μM Cbl-b inhibitor. The text has this:
(§1) Methods for experimentally determining increased T-cell activation, increased T-cell proliferation, decreased T-cell exhaustion, and/or decreased T-cell tolerance are well known in the art.
(§2) Modulation of activity of an immune cell, such as a T-cell, a B cell or a NK cell can be measured by determining a baseline value for a parameter of interest (e.g., cytokine secretion). […] A reference value then is obtained for T-cell activation after contacting or administering said Cbl-b inhibitor. The reference value is compared to the baseline value in order to determine the amount of T-cell activation due to contact or administration of the Cbl-b inhibitor or composition thereof. […] Immune cell activation can be assessed by measuring biological markers of activation such as increased cytokine secretion, increased cell surface expression of activation markers (e.g., cell surface markers), or increased phosphorylation of proteins in a downstream signaling pathway. The fold over baseline value that indicates immune cell activation can be determined for the parameter being tested and the conditions under which the immune cell were treated. For example, for measuring T-cell activation, a baseline value can be obtained from T-cells stimulated with anti-CD3 antibody in combination with anti-CD28 antibody, wherein the cells are not incubated with a Cbl-b inhibitor. […] A positive response for immune cell activation can then be determined by the obtained reference value. […]

In assay [2] the target is T1, Cbl-b (Homo sapiens, UniProt Q13191). Description: Cbl-b activity assay (Cbl-b inhibition assay), TR-FRET of Cbl-b interaction with UbcH5B-Ub. It counts as biochemical. Conditions: assay buffer with 100 mM NaCl, 60 nM Src kinase; read-out: Cbl-b activity IC50. In outline: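 TR-FRET readout of Cbl-b binding to Bodipy-fluorescein N-terminally labeled Ub conjugated to UbcH5B C85K, measured with compound present. After compound incubation, 60 nM Src kinase with 1 mM ATP and 5 mM MgCl2 (final) was added for 1.5 h, then a further 1 h incubation; asterisked values used 50 mM NaCl buffer and 30 nM Src.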
T1 sequence (Q13191 36-427): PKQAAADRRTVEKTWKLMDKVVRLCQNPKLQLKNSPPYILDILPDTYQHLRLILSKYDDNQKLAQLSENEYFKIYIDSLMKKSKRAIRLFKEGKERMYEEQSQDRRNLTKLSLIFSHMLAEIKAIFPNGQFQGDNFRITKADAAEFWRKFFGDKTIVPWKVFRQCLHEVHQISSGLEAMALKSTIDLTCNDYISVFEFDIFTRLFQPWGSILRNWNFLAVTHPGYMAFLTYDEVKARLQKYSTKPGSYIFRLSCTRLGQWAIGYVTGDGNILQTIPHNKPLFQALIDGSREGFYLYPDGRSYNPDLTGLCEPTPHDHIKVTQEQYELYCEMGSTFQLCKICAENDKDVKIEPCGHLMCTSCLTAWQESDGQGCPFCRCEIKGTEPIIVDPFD

Assay [3] has as its system T-cell. Description: IL-2 secretion from T-cells stimulated with anti-CD3 antibody alone (Biological Example 2). It counts as cell-based, human. Conditions: T-cell, fold change over baseline, primary human total T-cells, read-out: IL-2 secretion Anti-CD3 stimulation; for fold induction at 1 µM: 1 μM Cbl-b inhibitor; for fold induction at 8 µM: 8 μM Cbl-b inhibitor.
Description: as §1
(§3) Modulation of activity of an immune cell, such as a T-cell, a B cell or a NK cell can be measured by determining a baseline value for a parameter of interest (e.g., cytokine secretion). […] A reference value then is obtained for T-cell activation after contacting or administering said Cbl-b inhibitor. The reference value is compared to the baseline value in order to determine the amount of T-cell activation due to contact or administration of the Cbl-b inhibitor or composition thereof. […] Immune cell activation can be assessed by measuring biological markers of activation such as increased cytokine secretion, increased cell surface expression of activation markers (e.g., cell surface markers), or increased phosphorylation of proteins in a downstream signaling pathway. The fold over baseline value that indicates immune cell activation can be determined for the parameter being tested and the conditions under which the immune cell were treated. For example, for measuring T-cell activation, a baseline value can be obtained from T-cells stimulated with anti-CD3 antibody in combination with anti-CD28 antibody, wherein the cells are not incubated with a Cbl-b inhibitor. […] A positive response for immune cell activation can then be determined by the obtained reference value.
(§4) In some embodiments, a baseline value can be obtained from T-cells stimulated with anti-CD3 antibody alone, wherein the cells are not incubated with a Cbl-b inhibitor. In some embodiments, a positive response for T-cell activation as measured by cytokine secretion (e.g., IL-2 secretion) by T-cells stimulated with anti-CD3 antibody alone in the presence of a Cbl-b inhibitor is at least 0.1-fold over the baseline value for cytokine secretion (e.g., IL-2 secretion) obtained from T-cells stimulated with anti-CD3 antibody alone in the absence of a Cbl-b inhibitor. In some embodiments, a positive response for T-cell activation as measured by surface marker expression (e.g., CD25 surface marker staining) by T-cells stimulated with anti-CD3 antibody alone in the presence of a Cbl-b inhibitor is at least 0.6-fold over the baseline value for surface marker expression (e.g., CD25 surface marker staining) obtained from T-cells stimulated with anti-CD3 antibody alone in the absence of a Cbl-b inhibitor.

The test system of assay [4] is T-cell. Description: IL-2 secretion from T-cells co-stimulated with anti-CD3 and anti-CD28 antibody (Biological Example 2). Type of assay: cell-based, human. The conditions noted are these: Homo sapiens, T-cell, fold change over baseline, primary human total T-cells, read-out: IL-2 secretion Anti-CD3/Anti-CD28 stimulation; for fold induction at 0.3 µM: 0.3 μM Cbl-b inhibitor; for fold induction at 1 µM: 1 μM Cbl-b inhibitor; for fold induction at 4 µM: 4 μM Cbl-b inhibitor.
Description: as §1, §2

Assay [5] deals with T-cell. As to the kind of experiment: CD25 cell surface staining on T-cells stimulated with anti-CD3 antibody alone (Biological Example 2). It counts as cell-based, human. The conditions noted are these: T-cell, fold change over baseline, primary human total T-cells, read-out: CD25 staining Anti-CD3 stimulation; for fold induction at 1 µM: 1 μM Cbl-b inhibitor; for fold induction at 8 µM: 8 μM Cbl-b inhibitor.
Description: as §1, §3, §4

Assay [6] addresses T1, Cbl-b. As to the kind of experiment: Cbl-b inhibition assay (Cbl-b activity assay, FRET, Biological Example 1; 100 mM NaCl, 60 nM Src kinase). It counts as biochemical. Conditions: upper bound stated in text lists; read-out: IC50 values in the Cbl-b inhibition assay of Biological Example 1. In outline: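 Inhibitor activity is measured as reduced terbium-to-fluorescein FRET between streptavidin-terbium on biotinylated Cbl-b and Bodipy-fluorescein ubiquitin carried by an irreversible UbcH5B-Ub conjugate, binding of which depends on Src phosphorylation of Cbl-b.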

Consider `C[C@H](Cc1nncn1C)c1cccc(NC(=O)c2cc(C(F)(F)F)n[nH]2)c1` [Compound 314, (R)-N-(3-(1-(4-Methyl-4H-1,2,4-triazol-3-yl)propan-2-yl)phenyl)-3-(trifluoromethyl)-1H-pyrazole-5-carboxamide], for which, in assay [1], the fold induction at 0.3 µM lay in the range of 1.01 to 1.3, the fold induction at 1 µM fell in the range of 1.01 to 1.3 and the fold induction at 4 µM is 1.01 to 1.3. Further, the IC50 (in general, the concentration that inhibits the measured activity by half) in assay [2] fell in the range of 301 to 1000 nM. Moreover, in assay [3], the fold induction at 1 µM was 0.051 to 0.1 and the fold induction at 8 µM is 0.101 to 0.15. In assay [4], the fold induction at 0.3 µM lay in the range of 1.01 to 2.5, the fold induction at 1 µM lay within 1.01 to 2.5 and the fold induction at 4 µM lay within 1.01 to 2.5. Besides, in assay [5], the fold induction at 1 µM is 0.601 to 0.8 and the fold induction at 8 µM fell in the range of 0.601 to 0.8.

For the molecule `C[C@H](Cc1nncn1C)c1cccc(NC(=O)c2coc(C(F)(F)F)n2)c1` [Compound 315, (R)-N-(3-(1-(4-Methyl-4H-1,2,4-triazol-3-yl)propan-2-yl)phenyl)-2-(trifluoromethyl)oxazole-4-carboxamide], in assay [1], the fold induction at 0.3 µM was in the range of 1.01 to 1.3, the fold induction at 1 µM lay in the range of 1.01 to 1.3 and the fold induction at 4 µM was 1.01 to 1.3. The IC50 in assay [2] lay within 301 to 1000 nM. Besides, in assay [3], the fold induction at 1 µM fell in the range of 0.051 to 0.1 and the fold induction at 8 µM was in the range of 0.101 to 0.15. In addition, in assay [4], the fold induction at 0.3 µM is under 1, the fold induction at 1 µM fell in the range of 1.01 to 2.5 and the fold induction at 4 µM was in the range of 1.01 to 2.5. Moreover, in assay [5], the fold induction at 1 µM was 0.601 to 0.8 and the fold induction at 8 µM is 0.801 to 1.

For `Cn1cnnc1CC1(c2cccc(N3Cc4c(cc(CN5CCc6ncccc6C5)cc4C(F)(F)F)C3=O)c2)COC1` [Example 709, 6-((7,8-dihydro-1,6-naphthyridin-6(5H)-yl)methyl)-2-(3-(3-((4-methyl-4H-1,2,4-triazol-3-yl)methyl)oxetan-3-yl)phenyl)-4-(trifluoromethyl)isoindolin-1-one], the IC50 in assay [6] is at most 100 nM; in assay [2] it was under 100 nM.

On to `Cn1cnnc1CC1(c2cccc(N3Cc4c(cc(CN5CCO[C@H](CO)C5)cc4C(F)(F)F)C3=O)c2)COC1` [Example 710, (S)-6-((2-(hydroxymethyl)morpholino)methyl)-2-(3-(3-((4-methyl-4H-1,2,4-triazol-3-yl)methyl)oxetan-3-yl)phenyl)-4-(trifluoromethyl)isoindolin-1-one], for which the IC50 in assay [6] is at most 100 nM; in assay [2], under 100 nM.

On to `Cn1cnnc1CC1(c2cccc(N3Cc4c(cc(CN5CCN6C(=O)CCC6C5)cc4C(F)(F)F)C3=O)c2)COC1` (stereo not drawn) [Example 711, 2-((2-(3-(3-((4-methyl-4H-1,2,4-triazol-3-yl)methyl)oxetan-3-yl)phenyl)-3-oxo-7-(trifluoromethyl)isoindolin-5-yl)methyl)hexahydropyrrolo[1,2-a]pyrazin-6(2H)-one], for which the IC50 in assay [6] is at most 100 nM; in assay [2], under 100 nM.

`Cn1cnnc1CC1(c2cccc(N3Cc4c(cc(CN5CCOC6(CCOC6)C5)cc4C(F)(F)F)C3=O)c2)COC1` (stereo not drawn) [Example 712, 6-((2,6-dioxa-9-azaspiro[4.5]decan-9-yl)methyl)-2-(3-(3-((4-methyl-4H-1,2,4-triazol-3-yl)methyl)oxetan-3-yl)phenyl)-4-(trifluoromethyl)isoindolin-1-one]: the results for the IC50 in assay [6] and in assay [2] were at most 100 nM and under 100 nM, respectively.

As for `Cn1cnnc1CC1(c2cccc(N3Cc4c(cc(CN5CCOC(CF)C5)cc4C(F)(F)F)C3=O)c2)COC1` (stereo not drawn) [Example 714, 6-((2-(fluoromethyl)morpholino)methyl)-2-(3-(3-((4-methyl-4H-1,2,4-triazol-3-yl)methyl)oxetan-3-yl)phenyl)-4-(trifluoromethyl)isoindolin-1-one], the figures for the half-maximal inhibitory concentration (IC50) in assay [6] and in assay [2] were at most 100 nM and under 100 nM, respectively.

Take `Cn1cnnc1CC1(c2cccc(N3Cc4c(cc(CN5CCOC(CC(F)(F)F)C5)cc4C(F)(F)F)C3=O)c2)COC1` (stereo not drawn) [Example 715, 2-(3-(3-((4-methyl-4H-1,2,4-triazol-3-yl)methyl)oxetan-3-yl)phenyl)-6-((2-(2,2,2-trifluoroethyl)morpholino)methyl)-4-(trifluoromethyl)isoindolin-1-one]: the figures for the IC50 in assay [6] and in assay [2] were at most 100 nM and under 100 nM, respectively.

`CC(C)C1CN(Cc2cc3c(c(C(F)(F)F)c2)CN(c2cccc(C4(Cc5nncn5C)COC4)c2)C3=O)CCO1` (stereo not drawn) [Example 716, 6-[(2-isopropylmorpholin-4-yl)methyl]-2-(3-{3-[(4-methyl-1,2,4-triazol-3-yl)methyl]oxetan-3-yl}phenyl)-4-(trifluoromethyl)-3H-isoindol-1-one]: the IC50 in assay [6] is at most 100 nM; in assay [2], under 100 nM.

`Cn1cnnc1CC1(c2cccc(N3Cc4c(cc(CN5CCOC(CCO)C5)cc4C(F)(F)F)C3=O)c2)COC1` (stereo not drawn) [Example 717, 6-{[2-(2-hydroxyethyl)morpholin-4-yl]methyl}-2-(3-{3-[(4-methyl-1,2,4-triazol-3-yl)methyl]oxetan-3-yl}phenyl)-4-(trifluoromethyl)-3H-isoindol-1-one]: the IC50 in assay [6] was at most 100 nM; in assay [2], under 100 nM.

Regarding `Cn1cnnc1CC1(c2cccc(N3Cc4c(cc(CN5CCOC(C6CC6)C5)cc4C(F)(F)F)C3=O)c2)COC1` (stereo not drawn) [Example 718, 6-[(2-cyclopropylmorpholin-4-yl)methyl]-2-(3-{3-[(4-methyl-1,2,4-triazol-3-yl)methyl]oxetan-3-yl}phenyl)-4-(trifluoromethyl)-3H-isoindol-1-one], the IC50 is at most 100 nM in assay [6] and under 100 nM in assay [2].

Turning to `Cn1cnnc1CC1(c2cccc(N3Cc4c(cc(CN5CCOC(C6CCC6)C5)cc4C(F)(F)F)C3=O)c2)COC1` (stereo not drawn) [Example 719, 6-[(2-cyclobutylmorpholin-4-yl)methyl]-2-(3-{3-[(4-methyl-1,2,4-triazol-3-yl)methyl]oxetan-3-yl}phenyl)-4-(trifluoromethyl)-3H-isoindol-1-one], the IC50 was at most 100 nM in assay [6] and under 100 nM in assay [2].
